ChEMBL document CHEMBL1821573, “A fast virtual screening approach to identify structurally diverse inhibitors of trypanothione reductase” (Bioorg Med Chem Lett, 2011)

target: Trypanothione reductase (Trypanosoma cruzi, UniProt P28593); test: Inhibition of Trypanosoma cruzi TryR using trypanothione as substrate preincubated for 10 mins
Sequence (P28593 whole entry): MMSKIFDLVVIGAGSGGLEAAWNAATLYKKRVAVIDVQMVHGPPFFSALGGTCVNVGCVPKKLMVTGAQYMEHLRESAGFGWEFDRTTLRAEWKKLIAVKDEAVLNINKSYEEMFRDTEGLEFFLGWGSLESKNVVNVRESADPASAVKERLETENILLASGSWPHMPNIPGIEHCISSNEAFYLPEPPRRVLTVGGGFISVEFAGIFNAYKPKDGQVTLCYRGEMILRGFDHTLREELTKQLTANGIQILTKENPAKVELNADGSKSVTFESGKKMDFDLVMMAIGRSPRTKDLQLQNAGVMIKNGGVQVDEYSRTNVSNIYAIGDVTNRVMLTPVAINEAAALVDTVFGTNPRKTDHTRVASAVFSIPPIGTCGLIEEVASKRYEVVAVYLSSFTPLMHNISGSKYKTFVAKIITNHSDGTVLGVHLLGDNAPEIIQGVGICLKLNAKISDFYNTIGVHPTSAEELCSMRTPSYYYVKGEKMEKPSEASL

Ki | SMILES
10.6 µM | Nc1ccc2[nH]c(CCCCCCCCc3nc4cc(N)ccc4[nH]3)nc2c1
13.1 µM | Cc1ccc2[nH]c(Cc3ccc(NC(=O)CCc4nc5ccccc5[nH]4)cc3)nc2c1
5.7 µM | CCn1c(-c2ccccc2)cnc1SCC(=O)Nc1ccc(C2CCCCC2)cc1
13.1 µM | CCn1c(-c2ccccc2)cnc1SCC(=O)Nc1sc2c(c1C#N)CCCC2
9.3 µM | N#Cc1c(NC(=O)CSc2nc(-c3ccc(Cl)cc3)c[nH]2)sc2c1CCCC2
26.9 µM | Cc1ccc2nc(Cc3ccc(NC(=O)C(C)Oc4ccccc4)cc3)[nH]c2c1 (centres undefined)
11.8 µM | Cc1sc2ncn3c(SCC(=O)Nc4sc5c(c4C#N)CCCC5)nnc3c2c1C
11.1 µM | COCCn1c(-c2ccccc2)cnc1SCC(=O)CNc1ccc(S(=O)(=O)N2CCCCC2)cc1
22.3 µM | O=C(CNc1ccc(S(=O)(=O)N2CCCCC2)cc1)CSc1ncc(-c2ccc(Cl)cc2)n1-c1ccccc1
